Source: patent US20260315436A1, “METHOD OF TREATING DISORDERS WITH SURF1 MALFUNCTION” (Cure Mito Foundation, priority 2023, published 2026)
Entries after “also recorded” stand apart in the source; their conditions may differ.

Columns and labels:
[1] = test system: GM28010 SURF1 mutant fibroblasts; test: Seahorse mitochondrial stress test, fibroblast cell line GM28010 (Experiment 1, single compounds); type: cell-based, human; conditions: 48 h; for ATP-linked respiration / basal respiration: galactose-cultured cells; for increase in ATP-linked respiration / increase in maximal respiration: both glucose and galactose-cultured cells
Experimental: (§1) In order to evaluate selected compounds' impact on mitochondrial function in patient-derived fibroblasts compared to controls, three seahorse assays were conducted, Exp. 1: Fibroblast cell line GM28010—single compounds; Exp. 2. Fibroblast cell line GM28010—combination of compounds+ Single compounds; and Exp. 3: Fibroblast cell line GM28012—single compounds. Seahorse XF24 Extracellular Flux Analyzers continuously measure oxygen concentration and proton flux in the cell supernatant over time (Wu et al., 2007). The oxygen concentration and proton flux measurements are converted in OCR and ECAR values. This enables a direct quantification of mitochondrial respiration and glycolysis. The aim of the seahorse assays is to evaluate the impact of selected compounds on mitochondrial function in patient-derived fibroblasts compared to controls. Compounds used in the seahorse assays include posacanazole, sertaconazole, glabridin, zinglibroside (ginsenoside Z R1), AM281, cysteamine bitrartate, PF-06447475, losmapimod, telepravir, miltefosine, incyclinide, poziotinib, and methylene blue.
Fibroblast cell line GM28010 is a primary human fibroblast cell line obtained from patients with SURF1 Leigh syndrome. It was purchased from the Coriell Cell Repositories (Camden, NJ, repository number GM28010). Cell line GM00038 was used as a healthy control for GM28010 and is a primary human fibroblast purchased from the Coriell Cell Repositories (Camden, NJ, repository number GM00038).
Fibroblasts were grown in glucose according to recommendation.
Cells were plated in XF96 plates in culture medium and were plated at 10,000 cells/well.
The day after plating, cells were treated with the compounds in Table 1. The treatments were completed in glucose medium and galactose medium. The compounds were tested at for 48 hours. The compounds were incubated at (37 C, 5% CO2) until the day of the experiment.
*Fibroblasts were run at passage numbers: GM28010 SURF1 Fibroblasts P5; GM00038F controls P9.
• Assay Medium: 10 mM glucose or galactose DMEM supplemented with 2 mM glutamine and 1 mM pyruvate. • Injection Ports for basal glucose: Port A: 2 μM oligomycin; Port B: 2.5 μM FCCP; Port C: 4 μM FCCP; and Port D: 2 μM rotenone and antimycin A.
Data were normalized to cell number per well after the run. The Hoechst-stained nuclei were counted with the Operetta High-Content Imager.
(§2) • Basal Oxygen Consumption (OCR): This reflects the cellular oxygen usage under basal conditions, encompassing both energy production (ATP turnover) and background oxygen leak from the mitochondria. • Oligomycin Injection: Oligomycin is a compound that inhibits ATP synthase, an enzyme crucial for ATP production within mitochondria. • Oligomycin-resistant Respiration: After oligomycin injection, minimal oxygen consumption persists, representing non-ATP linked oxygen leak from the mitochondria, often termed proton leak. • ATP-linked Respiration: This value is derived by subtracting the oligomycin-resistant respiration from the basal OCR. It signifies the oxygen consumption specifically linked to ATP production through mitochondrial oxidative phosphorylation. • Mitochondrial Bioenergetic Efficiency: This parameter reflects the percentage decrease in oxygen consumption observed after oligomycin injection, indicating the mitochondria's efficiency in utilizing oxygen for ATP generation. • FCCP Injection: FCCP is a chemical that disrupts the link between mitochondrial electron transport and ATP production. • Maximal Respiration: Following FCCP injection, the highest oxygen consumption rate is measured, representing the maximum capacity of the mitochondria to utilize oxygen for respiration. • Spare Respiratory Capacity: This parameter is calculated by subtracting basal respiration from maximal respiration.

[2] = test system: GM28012 SURF1 fibroblasts; test: Seahorse mitochondrial stress test, fibroblast cell line GM28012 (Experiment 3, single compounds); type: cell-based, human; conditions: 48 h; for total ATP: highest concentration (10 uM); for increase in respiration compared with GM28010: GM28012 vs GM28010
Experimental: as §1, §2
GM28010 primary human fibroblasts obtained from patients with SURF1 Leigh syndrome were purchased from the Coriell Cell Repositories (Camden, N.J.; repository number GM28010).
GM00038 primary human fibroblasts purchased from the Coriell Cell Repositories (Camden, N.J., repository number GM00038) and were used as a healthy control.
Fibroblasts were grown in glucose according to recommendation. Cells were plated in XF96 plates in culture medium and plated at 10,000 cells/well. The day after plating, the cells were treated with the compounds. The treatments completed in glucose medium and galactose medium. The compounds were tested at for 48 hours. The compounds were incubated at (37 C, 5% CO2) until the day of the experiment. The fibroblasts were run at passage numbers: GM28012 SURF1 Fibroblasts P5.
The assay medium was 10 mM glucose or galactose DMEM supplemented with 2 mM glutamine and 1 mM pyruvate. Injection Ports for basal glucose: Port A: 2 μM oligomycin; Port B: 2.5 μM FCCP; Port C: 4 μM FCCP; and Port D: 2 μM rotenone and antimycin A.
The data were normalized to cell number per well after the run. The Hoechst-stained nuclei were counted with a Operetta High-Content Imager.

[3] = glucose and galactose conditions
[4] = glucose and galactose conditions, listed as Posacanazole
[5] = glucose-cultured cells, listed as incyclinide
[6] = 10 μM, listed as Ginsenoside Z R1 (Zinglibroside)

In the case of `CC[C@@H]([C@H](C)O)n1ncn(-c2ccc(N3CCN(c4ccc(OC[C@@H]5CO[C@@](Cn6cncn6)(c6ccc(F)cc6F)C5)cc4)CC3)cc2)c1=O` [Posaconazole, posaconazole], the toxicity ([1]; all concentrations) is reported as “toxic at all conc”, the respiration [1, 3] is reported as “did not result in major changes” and the respiration [1, 4] is reported as “↓ respiration”. For the same compound, the respiration ([1]; higher concentrations) was “decreased respiration”, the “total ATP production rate” value [2] was “compensation with increased glycolysis” and the respiration [2, 3] was “decreased respiration”. For the same compound, the respiration [2, 4] was “↓ respiration, total ATP rate”, the “total ATP” value [2] was “total ATP drops” and the “total ATP” value ([2]; listed as Posacanazole) was “(10 uM) where ATP drops”. For the same compound, the “total ATP production rate” value ([2]; listed as Posacanazole) was “compensated by glycolysis”.

With `NC(=O)C1=C(O)C[C@@H]2C[C@@H]3Cc4cccc(O)c4C(=O)C3=C(O)[C@]2(O)C1=O` [Incyclinide, incyclinide] the ATP-linked respiration [1] was “↑ basal respiration and ATP-”, the basal respiration [1] was “↑ basal respiration and ATP-” and the ATP-linked respiration ([1]; listed as incyclinide) was “some increase”. The basal respiration ([1]; listed as incyclinide) was “some increase”, the “all respiratory parameters measured” value ([1]; glucose-cultured cells) was “dose-dependent decrease” and the toxicity ([1]; glucose-cultured cells) was “Toxicity in glucose”. For the same compound, the toxicity [1, 5] was “some toxicity”, the “all respiratory parameters measured” value ([2]; glucose-cultured cells) was “dose-dependent decrease” and the toxicity ([2]; glucose-cultured cells) was “Toxicity observed in glucose”. For the same compound, the toxicity [2, 5] was “showed toxicity”.

`CC1(C)CC[C@]2(C(=O)O)CC[C@]3(C)C(=CC[C@@H]4[C@@]5(C)CC[C@H](O[C@@H]6O[C@H](C(=O)O)[C@@H](O)[C@H](O)[C@H]6O[C@@H]6O[C@H](CO)[C@@H](O)[C@H](O)[C@H]6O)C(C)(C)[C@@H]5CC[C@]43C)[C@@H]2C1` [Ginsenoside Z R1] was tested, and the “ATP production through OXPHOS” value [1, 6] was “increase in ATP production”, the “ATP production through glycolysis” value [1, 6] was “increase in ATP production” and the “ATP production through OXPHOS” value ([1]; 10 μM, listed as Zinglibroside) was “both conditions: ↑ATP via”. For the same compound, the “ATP production through glycolysis” value ([1]; 10 μM, listed as Zinglibroside) was “both conditions: ↑ATP via”, the “ATP production through OXPHOS” value ([1]; 10 μM, listed as zinglibroside) was “increase in ATP production” and the “ATP production through glycolysis” value ([1]; 10 μM, listed as zinglibroside) was “increase in ATP production”. For the same compound, the maximal respiration [1, 3] was “did not result in changes”, the “ATP production through OXPHOS” value [2] was “increase in ATP production” and the “ATP production through glycolysis” value [2] was “increase in ATP production”. For the same compound, the “ATP production through OXPHOS” value ([2]; 1 μM) was “increased ATP production through OXPHOS”, the “total ATP production rate” value ([2]; 1 μM) was “increased ATP production through OXPHOS and total ATP production rate” and the “maximal respiration (maximal OCR)” value [2, 3] was “did not result in changes”.

`Cc1c(F)cc(C(=O)NC2CC2)cc1-c1ccc(C(=O)NCC(C)(C)C)cn1` [Losmapimod, losmapimod] was tested, and the “ATP production through glycolysis” value [1] was “conditions. ↓ ATP production”, the “increase in ATP-linked respiration” value [1] was 12-15% increases in and the “increase in maximal respiration” value [1] was 12-15% increases in. The “increase in ATP-linked respiration” value ([1]; listed as losmapimod) was 12-15%, the “increase in maximal respiration” value ([1]; listed as losmapimod) was 12-15% and the respiration [1, 3] was “Increased respiration”. The increase in respiration ([1]; glucose and galactose culture conditions) was “up to 15%”, the “ATP production through glycolysis” value ([1]; listed as losmapimod) was “decrease in ATP production through glycolysis” and the “ATP production through OXPHOS” value [2] was “Increased ATP-linked respiration and ATP production through OXPHOS”. For the same compound, the “ATP production through glycolysis” value [2] was “glucose-cultured cells. ↓ATP”, the “total ATP production rate” value [2] was “without changes; also recorded: maintained” and the “increase in respiration compared with GM28010” value [2] was “did not increase respiration as much”. The “increase in respiration compared with GM28010” value ([2]; listed as losmapimod) was “not as impressive as was observed in GM28010”, the ATP-linked respiration ([2]; glucose-cultured cells, listed as losmapimod) was “increased in ATP-linked respiration” and the “ATP production through glycolysis” value ([2]; listed as losmapimod) was “decrease in ATP production through glycolysis”. The “total ATP production rate” value ([2]; listed as losmapimod) was “maintained” and the ATP-linked respiration ([2]; medium not stated) was “Increased ATP-linked respiration”.

`C=CC(=O)N1CCC(Oc2cc3c(Nc4ccc(Cl)c(Cl)c4F)ncnc3cc2OC)CC1` [Poziotinib, poziotinib] was tested, and the respiration ([1]; glucose and galactose conditions, listed as poziotinib) was “did not result in major changes”, the glycolysis ([1]; glucose-cultured cells) was “dose-dependent decrease” and the maximal respiration ([1]; glucose-cultured cells) was “dose-dependent decrease”. The toxicity ([1]; glucose-cultured cells) was “some toxicity” and the “ATP production through glycolysis” value ([1]; listed as poziotinib) was “decrease ATP production through glycolysis”.
